Data reported in PMC8607422, “Development of a novel TLR8 agonist for cancer immunotherapy” (Molecular Biomedicine, 2020).

Assays:
hTLR8 = target: T1, hTLR8 (Homo sapiens, UniProt Q9NR97); assay: HEK-Blue hTLR8 SEAP reporter agonist assay; type: cell-based
T1 construct: host or cells: HEK-Blue hTLR8 (HEK293-derived, per own knowledge)
T1 sequence (Q9NR97 27-1041): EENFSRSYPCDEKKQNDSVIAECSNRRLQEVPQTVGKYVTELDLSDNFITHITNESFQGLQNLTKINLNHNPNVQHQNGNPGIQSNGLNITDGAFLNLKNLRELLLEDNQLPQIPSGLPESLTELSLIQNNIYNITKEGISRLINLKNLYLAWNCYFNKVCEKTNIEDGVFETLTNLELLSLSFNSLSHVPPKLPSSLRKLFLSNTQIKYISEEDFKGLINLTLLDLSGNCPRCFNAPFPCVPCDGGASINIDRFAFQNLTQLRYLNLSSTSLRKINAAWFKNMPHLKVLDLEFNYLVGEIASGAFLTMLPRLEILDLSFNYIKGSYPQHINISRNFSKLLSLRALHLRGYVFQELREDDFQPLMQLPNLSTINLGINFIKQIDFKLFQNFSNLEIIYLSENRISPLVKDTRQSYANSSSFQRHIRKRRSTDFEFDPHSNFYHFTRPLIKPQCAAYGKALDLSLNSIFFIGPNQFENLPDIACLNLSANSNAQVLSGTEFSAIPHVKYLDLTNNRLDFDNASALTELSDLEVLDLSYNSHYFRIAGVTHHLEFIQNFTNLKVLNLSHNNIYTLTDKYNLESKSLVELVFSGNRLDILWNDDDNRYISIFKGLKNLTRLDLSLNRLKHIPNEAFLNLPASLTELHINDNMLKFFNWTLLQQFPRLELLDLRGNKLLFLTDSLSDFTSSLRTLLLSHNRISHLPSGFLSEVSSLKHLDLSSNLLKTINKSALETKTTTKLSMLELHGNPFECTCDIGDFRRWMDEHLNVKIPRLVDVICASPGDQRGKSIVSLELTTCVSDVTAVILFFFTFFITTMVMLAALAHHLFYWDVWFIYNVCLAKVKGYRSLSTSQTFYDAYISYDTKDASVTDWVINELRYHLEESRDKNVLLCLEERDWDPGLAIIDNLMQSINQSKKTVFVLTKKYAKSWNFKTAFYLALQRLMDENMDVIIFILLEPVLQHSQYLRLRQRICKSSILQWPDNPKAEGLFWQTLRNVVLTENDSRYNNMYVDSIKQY
From the text: HEK-Blue™ hTLR4, 7, 8 and 9 cell lines were purchased from InvivoGen (Hong Kong). The cells express the human TLR gene and NF-κB/AP-1-inducible SEAP (secreted embryonic alkaline phosphatase) reporter gene. SEAP levels produced upon TLR stimulation can be determined by QUANTI-Blue™. In the cell-based assay, the main reagents used were QUANTI-Blue™ (InvivoGen) and ATPlite 1 Step (Perkin Elmer). The main instruments used were the microplate reader SpectraMax 340PC (Molecular Device) and Envision (Perkin Elmer). […] The compounds were in 10 mM stock solution in DMSO and stored at − 20°C. […] DMSO was used as the negative control. […] The cells were cultured and treated with the compounds at 37°C, 5%CO2 for 24 h. After 24 h of incubation, 20 μl of the supernatant of each well was added to 180 μl of QUANTI-Blue™. The plates were incubated at 37°C for 1.5 h. After 1.5 h of incubation, the optical density was measured using the spectrophotometer at 650 nm in the microplate reader of SpectraMax 340PC. The cell viability of each well was determined using ATPlite 1 Step following the manufacturer’s instruction. The luminescence signal in each well of plates was measured in the microplate reader of Envision.

in vivo = assay: in vivo; set-up: species or system cynomolgus monkeys; details: cynomolgus, cynomolgus monkey, sc, 1 mg/kg
Procedure: To determine the in vivo pharmacokinetic profiles, the compounds were formulated with 11% captisol and then administered iv, ip, sc and po into Sprague Dawley rats or iv and sc into mice or cynomolgus monkeys, respectively. Blood samples were collected before dosing and 0.083 h, 0.25 h, 0.5 h, 1 h, 2 h, 4 h, 6 h, 8 h, 12 h and 24 h after dosing. Blood samples were collected in tubes containing K2EDTA. Plasma was isolated from the blood samples by centrifugation of the blood samples at 2400 × g for 5 min at 4°C. Plasma samples were measured using LC-MS/MS (Waters ACQUITY UPLC and TQ 6500+) to determine the concentration of compounds. The data was analyzed using WinNonlin 7.0 to calculate the PK parameters such as AUC0-t, AUC0-∞, MRT0-∞, Cmax, Tmax, t1/2 and F.

[1] = system: HL-60 human acute promyelocytic leukemia (AML) cells; assay: Human HL-60 AML mouse xenograft model; type: in vivo; details: HL-60 AML xenograft, NOD/SCID mice, 1.3 mg/kg sc once a week
Procedure: All the animal experiments were conducted following Association for Assessment and Accreditation of Laboratory Animal Care (AAALAC)‘s guideline. The animal protocols were approved by the Institutional Animal Care and Use Committee (IACUC). Cell lines were purchased from credible vendors including ATCC. After tumor cell inoculation, the animals were checked daily for morbidity and mortality. At the time of routine monitoring, the animals were checked for any effects of tumor growth and treatment on the animals’ well-being such as mobility, food and water consumption, body weight gain/loss, matting and any other abnormalities. Clinical observations were recorded. Tumor volumes were measured twice a week in two dimensions using a caliper and the volume was expressed in mm^3 using the formula: V = 0.5 a × b^2 where a and b are the long and short diameters of the tumor, respectively. The procedures of dosing as well as tumor and body weight measurement were conducted in a laminar flow cabinet.
For HL-60 experiment, HL-60 human acute promyelocytic leukemia (AML) cells were cultured in vitro in suspension in RPMI1640 medium supplemented with 10% fetal bovine serum and 1% penicillin/streptomycin at 37°C in an atmosphere of 5% CO2 in air. The tumor cells were routinely passaged twice per week. The cells growing in the exponential growth phase were harvested and counted for tumor inoculation. […]

EC50 (hTLR8; HEK-Blue hTLR8 cells, 24 h, SEAP, read-out: EC50 in hTLR8 agonist activity (TLR8 cell EC50)): 109 nM
TLR8 selectivity (hTLR8; TLR8 over other TLR cell EC50): 182 fold
AUC(0-inf) (in vivo): 270 ng·h/mL
AUC(0-t) (in vivo): 270 ng·h/mL
Cmax (in vivo): 80 ng/mL
MRT inf (in vivo): 2.95 h
Tmax (in vivo): 2 h
half-life (in vivo): 1.43 h
Structure (SMILES): CCCN(CCC)C(=O)C1=Cc2ccc(-c3ccc(C(=O)N4CCCC4)cc3)cc2N=C(N)C1 [Motolimod, motolimod]
tumor growth inhibition (TGI) rate [1]: 17%
